Source: patent publication US20080103209A1, “Compounds And Methods For Treating Non-Inflammatory Pain Using Ppar Alpha Agonists” (The Regents of The University of California, priority 2004, published 2008)

Tests used:
[1] = test system: mice; experiment: Formalin-evoked pain behavior (hind paw licking); assay type: in vivo, mouse; details: for phase I and II formalin pain in wild-type mice: wild-type C57BL6 mice; for effect of CB2 antagonist on antinociceptive effect of GW7647: GW7647 50 μg i.pl.; for effect of CB2 antagonist on antinociceptive effect of GW7647 / effect of CB2 antagonist on antinociceptive effect of PEA: AM630 2 mg-kg^−1 i.p.; for effect of CB2 antagonist on antinociceptive effect of PEA: PEA 50 μg i.pl.
Procedure: Administration of formalin into the mouse hind paw evokes a pain behavior consisting of two temporally distinct phases of licking and flexing of the injected limb (Dubuisson, et al., Pain 4, 161-74 (1977)). The first phase, which starts immediately after formalin injection and lasts 5-10 min, is due to activation of nociceptive fibers and is accompanied by the local release of nitric oxide and adenosine [Dickenson, et al., Neurosci Lett 83, 207-11 (1987); Omote, et al., Brain Res 787, 161-4 (1998); Omote et al., 2000; Liu, et al., J Neurochem 80, 562-70 (2002)]. Following a quiescent interval of 10-15 minutes, a second phase of nociceptive behavior appears, which is associated with local inflammation [Rosland, et al., Pain 42, 235-42 (1990)] and central sensitization [Coderre, et al., J Neurosci 12, 3665-70 (1992)]. […] (2001); Farquuar-Smith, 2002]. […] The effects of PEA in C57BL/6J mice in which the PPARα gene had been deleted by homologous recombination (PPARα^−/−)[Lee, et al., Mol Cell Biol 15, 3012-22 (1995)] were examined to determine whether PPARα contributes to these properties.
Although PPARα is known to regulate the inflammatory response [Devchand, et al., Nature 384, 39-43. (1996); Cabrero, et al., Curr Drug Targets Inflamm Allergy 1, 243-8 (2002); Berger, et al., Annu Rev Med 53, 409-35 (2002); Chinetti, et al., Inflamm Res 49, 497-505 (2000)], its roles in the modulation of acute nociceptive pain remain unexplored. A series of structurally diverse PPAR-α agonists were tested for their ability to reduce pain behavior in an animal model of chemical tissue damage. Injection of formalin into the mouse hind paw evokes a nocifensive behavior consisting of two distinct phases. The first phase results from direct activation of nociceptive fibers and starts immediately after formalin administration, while the second phase develops over a period of approximately 60 min and is associated with local inflammation and central sensitization.
Mice received intraplantar injections of formalin (5% vol/vol, 10 μl) in saline containing polyethylene glycol (5%) and Tween 80 (5%). The duration of paw licking was monitored by an observer for periods of 0-15 min (early or first phase) and 15-45 min (late or second phase) immediately after formalin administration.
Formalin test. Formalin (5%, 10 μl)-induced paw licking was monitored for 0-15 min (first phase) and 15-45 min (second phase) as described (Calignano, et al., Nature 394, 277-81 (1998).

[2] = test system: Swiss mice; experiment: Sciatic nerve ligation neuropathy, mechanical and thermal hyperalgesia; assay type: in vivo, mouse
Procedure: To examine whether PPARα agonists modulate the persistent pain hypersensitivity associated with nerve injury, peripheral neuropathy was produced in mice by partially ligating the left sciatic nerve, a surgical procedure that results in the development of mechanical and thermal hyperalgesia in the operated limb (Bennett et al., Pain, 33, 87 (1988)).
Sciatic nerve ligation was performed essentially following the method of Bennett and Xie (Bennett et al., Pain 33, 87 (1988)). Briefly, male Swiss mice were anesthetized with sodium pentobarbital, the left sciatic nerve was exposed at mid-thigh level through a small incision and one-third to one-half of the nerve thickness was tightly ligated with a silk thread. The wound was closed with a single muscle suture and skin clips, and dusted with streptomycin powder. In sham-operated animals, the nerve was exposed but not ligated.
Mechanical hyperalgesia was determined by measuring paw withdrawal thresholds to an increasing pressure onto the dorsal surface of the paw using an analgesimeter (Ugo Basile, Italy) with a cut-off of 250 g. Withdrawal thresholds were measured on both the ipsilateral paw (inflamed or ligated) and contralateral paw (uninflamed or unligated) 60 min after subcutaneous drug administration.
Thermal hyperalgesia was assessed by the methods of Hargreaves (Hargreaves et al., Pain, 32, 77 (1988)) by measuring the latency to withdraw the hind paws from a focussed beam of radiant heat applied to the plantar surface, using an appropriate apparatus (Ugo Basile, Italy). The cut-off time was set at 30 sec. The mice were habituated to the apparatus for 10-15 min two days prior to the experiment.

[3] = test system: mice; experiment: TPA-induced ear edema (irritant contact dermatitis); assay type: in vivo, mouse; details: topical co-application, CD1 mice
Text: (§1) In addition to rapid-onset analgesia, PEA also exerts prolonged anti-inflammatory effects [Benvenuti, et al., Boll Soc It Biol Sper 44, 809-813 (1968); Lambert, et al., Curr Med. Chem. 9, 663-74 (2002)], which are associated with the down-regulation of pro-inflammatory proteins such as nitric oxide synthase (NOS) [Costa, et al., Br J Pharmacol 137, 413-20. (2002)]. Two models of acute inflammation were used to examine whether such effects are mediated through PPARα. First, paw edema was induced in C57B16J wild-type and PPARα^−/− mice by local injection of the irritant, carrageenan [Cirino, et al., Eur J Pharmacol 166, 505-10 (1989)]. […] Next, ear edema was produced in CD1 mice by topical administration of the phorbol ester, 12-O-tetradecanoylphorbol-13-acetate (TPA) [Sheu, et al., J Invest Dermatol., 94-101. (2002)]. […] In a parallel set of experiments, the effects of PEA (20 μg) on TPA-induced edema were tested in C57B16J wild-type and PPARα^−/− mice. […] Together, these findings indicate that PEA reduces acute nociception and inflammation through activation of PPARα.
As previous described procedure [Sheu, et al., J Invest Dermatol., 94-101. (2002)], 12-O-tetradecanoylphorbol-13-acetate (TPA) was dissolved in acetone (0.03%, w v^−1) and topically delivered with a pipette to the inner and outer surfaces (10 μl/side) of mice ears. Experimental agents were dissolved in acetone and delivered topically (20 μl/side) 45 minutes and 4 hours after TPA. 18 hours after TPA administration, the mice were euthanized with CO2 and the ears punched (diameter=2 mm) four times. The 4 excised punches of skin were combined and weighed to assess edema.

[4] = test system: mice; experiment: Carrageenan-evoked paw edema (acute); assay type: in vivo, mouse; details: wild-type C57Bl6J; PEA 10 mg-kg^−1 i.p., WY-14643 20 mg-kg^−1 i.p.
Text: as §1
An inflammatory response was initiated by injecting 2% (w v^−1, 20 μl) λ-carrageenan in sterile saline into mice hind paws using a 27-gauge needle. Drugs were administered 30 minutes before carrageenan (i.p.). Paw edema was measured using a plethysmometer (Ugo Basile, Italy).

[5] = test system: mice; experiment: Magnesium sulfate-evoked writhing test; assay type: in vivo, mouse; details: subcutaneous, Swiss mice
Procedure: Mice received a single dose of magnesium sulfate (120 mg/kg, dissolved in 0.5 ml saline, i.p.) and subsequent writhing episodes were monitored for a period of 30 min thereafter. Drugs were administered in saline/Tween 80/polyethylenglycol, (90/5/5) subcutaneously, 30 minutes before magnesium sulfate.
Next, the effect of PPARα agonists on the nocifensive behavior elicited by intraperitoneal injection of magnesium sulfate in mice, a model of visceral pain (Calignano, et al, Eur J Pharmacol 419, 191-8. (2001)), was explored.
Writhing test. Magnesium sulfate was injected (120 mg-kg^−1 in 0.5 ml saline, i.p.) in 12-h food-deprived mice and measured writhing episodes for 30 min (Calignano, et al, Eur J Pharmacol 419, 191-8. (2001)). Drugs or vehicle were administered by subcutaneous injection 30 min before magnesium sulfate.

[6] = molecular target: T1, human CB2 (Homo sapiens, UniProt P34972); experiment: CB2 receptor binding, [3H]-WIN-55212-2 displacement in CB2-overexpressing CHO cell membranes
T1 construct: purchased Perkin-Elmer, Boston, Mass; host or cells: CHO cells (membranes)
T1 sequence (P34972 whole entry): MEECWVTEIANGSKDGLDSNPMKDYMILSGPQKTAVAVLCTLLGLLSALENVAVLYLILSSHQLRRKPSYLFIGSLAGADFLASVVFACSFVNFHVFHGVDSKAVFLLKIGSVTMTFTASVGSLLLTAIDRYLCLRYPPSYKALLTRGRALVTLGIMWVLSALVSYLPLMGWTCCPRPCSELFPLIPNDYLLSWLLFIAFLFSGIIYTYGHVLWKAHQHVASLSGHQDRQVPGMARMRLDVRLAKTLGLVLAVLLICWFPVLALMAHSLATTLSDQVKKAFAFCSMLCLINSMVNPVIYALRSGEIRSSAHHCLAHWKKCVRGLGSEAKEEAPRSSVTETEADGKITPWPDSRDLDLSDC

[7] = molecular target: T2, human PPARα (Homo sapiens, UniProt Q07869); experiment: PPARα transactivation assay (HeLa cells, luciferase reporter); assay type: cell-based
T2 construct: expressed in transfected cells
T2 sequence (Q07869 239-466 limits assumed): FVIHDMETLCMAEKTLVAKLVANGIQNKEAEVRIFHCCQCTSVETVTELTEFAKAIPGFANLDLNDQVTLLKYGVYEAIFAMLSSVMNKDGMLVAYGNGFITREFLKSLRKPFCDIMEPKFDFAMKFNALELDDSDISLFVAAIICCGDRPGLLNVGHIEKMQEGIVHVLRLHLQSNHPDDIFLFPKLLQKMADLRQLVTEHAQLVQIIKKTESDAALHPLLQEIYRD
Procedure: Transactivation assays were performed as previously described [Fu et al., Nature 425:90-93 (2003)].
PPAR-α transactivation. Plasmids were generated which contained the ligand-binding domain of human PPAR-α (nucleotides 499-1,407) fused to the DNA-binding domain of yeast GAL4 under control of the human cytomegalovirus promoter and to a neomycin resistance gene to provide stable selection with 0.2 mg-ml-1 G418 (Calbiochem). We cultured HeLa cells in Dulbecco's-modified Eagles's medium (DMEM) supplemented with fetal bovine serum (10%), transfected them with Fugene 6 ([…], Roche) containing the pFR-luc plasmid ([…], Stratagene) and, 18 h later, replaced the media with DMEM containing hygromycin (0.1 mg ml−1, Calbiochem). […] Cells were maintained in DMEM containing hygromycin and G418. For transactivation assays, we seeded cells in 6-well plates and incubated them for 7 h in DMEM containing hygromycin and G418, plus appropriate concentrations of test compounds. We used a dual-luciferase reporter assay system (Promega) and an MLX Microtiter® plate luminometer (Dynex) to determine luciferase activity in cell lysates.

[8] = formalin, Swiss mice, SR144528 1 mg-kg^−1

Molecule: Cc1cc(SCc2sc(-c3ccc(C(F)(F)F)cc3)nc2C)ccc1OCC(=O)O [GW501516]
- phase I and II formalin pain in wild-type mice ([1]; 50 μg i.pl.): inactive

Molecule: NCC1(CC(=O)O)CCCCC1 [gabapentin]
- mechanical and thermal pain thresholds in the non-ligated paw of neuropathic mice ([2]; data not shown): did not affect
- neuropathic hypersensitivity (mechanical and thermal pain thresholds), ligated limb ([2]; single s.c. dose day 7 and 14 after surgery, 60 min before test, PEA, GW7647 30 mg-kg^−1, gabapentin 60 mg-kg^−1): comparable in magnitude

Molecule: CC1(COc2ccc(CC3SC(=O)NC3=O)cc2)CCCCC1 (stereo not drawn) [ciglitazone]
- phase I and II formalin pain in wild-type mice ([1]; 50 μg i.pl.): inactive

Molecule: CCCCC/C=C\C/C=C\C/C=C\C/C=C\CCCC(=O)N[C@H](C)CO [(R)-methanandamide]
- formalin pain in PPARα−/− mice ([1]; PPARα−/− mice, 50 μg i.pl.): reversed

Molecule: Cc1cccc(Nc2cc(Cl)nc(SCC(=O)O)n2)c1C [Wy-14643, [4-chloro-6-(2,3-xylidino)-2-pyrimidinylthio]acetic acid]
- first- and second-phase nociception ([1]; Swiss mice, i.pl. together with formalin, GW7647 0.1-50 μg, Wy-14643 50-200 μg, fenofibric acid 100-400 μg): attenuated first- and second-phase nociception in a dose-dependent manner
- average half-maximal effective dose (ED50) to reduce first-phase pain ([1]; intraplantar with formalin, Swiss mice, ten experiments): 97.0 µg
- TPA-induced ear edema formation [3]: attenuated
- carrageenan paw edema in wild-type mice [4]: decreased edema
- average ED50, magnesium sulfate-evoked writhing ([5]; n=8): 25 mg/kg
- number of writhing episodes evoked by magnesium sulfate ([5]; GW7647 1-30, Wy-14643 4-80, PEA 1-20 mg-kg^−1): dose-dependently decreased the number of writhing episodes
- [^3H]-WIN-55212-2 Binding (% of control) ([6]; Concentration 1 μM): 104.2 ± 3.6 % of control
- [^3H]-WIN-55212-2 Binding (% of control) ([6]; Concentration 10 μM): 105.6 ± 1.5 % of control

Molecule: COc1ccc(C(=O)c2c(C)n(CCN3CCOCC3)c3cc(I)ccc23)cc1 [AM630]
- effect of CB2 antagonist on antinociceptive effect of GW7647 [1, 8]: did not affect
- effect of CB2 antagonist on antinociceptive effect of PEA [1, 8]: did not affect

Molecule: SR144528
- antagonism of PEA-induced PPARα activation in vitro ([7]; PEA 10 μM, SR144528 0-5 μM): did not significantly antagonize
- effect of CB2 antagonist on antinociceptive effect of GW7647 [1, 8]: reverse
- effect of CB2 antagonist on antinociceptive effect of PEA [1, 8]: blocked
- effect of CB2 antagonist on antinociceptive effect of Wy-14643 ([1]; formalin, Swiss mice, Wy-14643 100 μg i.pl., SR144528 1 mg-kg^−1): reverse

Molecule: Cc1c(C(=O)NN2CCCCC2)nn(-c2ccc(Cl)cc2Cl)c1-c1ccc(Cl)cc1 [SR141716]
- effect on antinociception by anandamide plus PEA or GW7647 ([1]; SR141716 0.1 mg kg^−1 i.v., 10 min before formalin, agonists 0.1 μg/paw each): prevents

Molecule: CCCCCCCCCCCCCCCC(=O)O [palmitic acid]
- PPARα activation ([7]; HeLa cells, identical conditions): no effect
